In patent US20070281857A1, “FORMIC ACID AS AN HERBICIDE” (MARRONE ORGANIC INNOVATIONS, priority 2006, published 2007):
Read-outs that look alike come from different tables or passages of the source.

Tests used:
[1] = system: monocots (wheat); conditions: solution in water at 0.5% and 0.1%
Description: (§1) Numerous natural compounds were screened for their ability to inhibit the germination of seeds. A single seed was placed in each well of a 96-well plate followed by a solution of each compound in water at both 0.5% and 0.1%. Germination was monitored at varying intervals, depending on the germination time in the control groups for the particular seed being used in the study.

[2] = system: dicots (radishes); conditions: solution in water at 0.5% and 0.1%
Description: as §1

[3] = system: wheat (Triticum aestivum); conditions: 5%, spray
Protocol: (§2) The herbicidal effect of formic acid was compared with that of acetic acid in a greenhouse study using radish (Raphanus sativus) and wheat (Triticum aestivum) as test plants. Both formic acid and acetic acid were diluted in water at 1, 3, and 5%, and deionized water was used as a control. Tween 20 was added to each of the solutions at a rate 0.04% for use as a surfactant. Solutions were applied to plants using a small handheld sprayer. Plants were evaluated at 24- and 72-hours after treatment for the % control.

[4] = system: radish (Raphanus sativus); conditions: spray, 1, 3 and 5% in water with 0.04% Tween 20
Protocol: as §2

[5] = system: dicotyledonous radish plants (Raphanus sativas); conditions: foliar spray at all concentrations (1%, 3%, 5%); one day post-treatment
Description: (§3) In order to determine whether formic acid could be used as a foliar herbicide it was applied as a foliar spray to the leaves of dicotyledonous radish plants (Raphanus sativas) and monocotyledonous wheat plants (Triticum aestivum). Solutions were applied to plants using a small handheld sprayer.
(§4) Formic acid and acetic acid solutions at three concentrations (1%, 3%, 5%) were applied and water was used as a check. A barrier was inserted between the rows of plants on either side of the row being treated to avoid drift of sprays into neighboring rows. Plants were evaluated at 24-hour and 72-hour intervals for the number of surviving plants and a percentage was derived from this number in comparison with the number of plants originally present in the row.

[6] = system: monocotyledonous wheat plants (Triticum aestivum); conditions: one day post-treatment
Description: as §3, §4

[7] = system: apple seedlings
Protocol: In order to estimate the length of time during which the presence of formic acid in the soil would have a negative effect on new, and perhaps desirable, plantings, a residue study was performed. Holes were cut into the bottoms of flats. The flats were then filled with soil and treated with charcoal immersed in either formic acid or water, just as described above. Soil was watered regularly in order to simulate natural growing conditions and soil leaching. Ten apple seedlings were planted in individual flats containing one treatment or the other at intervals of one week and survival was monitored for one week following each planting.

[8] = system: monocot seeds; conditions: charcoal saturated at 1 mL acid/1 g charcoal, applied to soil in flats; FIG. 1
Description: (§5) Charcoal was applied to soil in flats containing a known number of seeds, either monocot or dicot, and germination was monitored in each of the treatment groups following intervals determined by the rate of germination in controls.

[9] = system: dicot seeds; conditions: charcoal saturated at 1 mL acid/1 g charcoal, applied to soil in flats; FIG. 2
Description: as §5

[10] = system: Taraxacum officinale (dandelion); conditions: for germination rate (%) dandelion: one week, compared with control
Protocol: (§6) Pots with 3-cm diameter were filled with 60 mL of silt clay loam soil passed through a 2-mm sieve, and five (5) seeds of either Taraxacum officinale (dandelion, representing a broadleaved weed) or Poa annua (annual bluegrass, representing a grass weed) were planted on the top. A solid form of the composition containing corn gluten meal granules (>2 mm diameter) soaked in 0%, 10%, 15% or 20% formic acid solution and dried were placed on the top of the soil at rates 0.1, 0.25, 0.5 and 1.0 g/pot. The pots were kept at optimum water content under growth lights with a 12-h light/dark period at room temperature, and the number of germinated seeds was counted after one week.

[11] = system: Poa annua (annual bluegrass); conditions: for germination rate (%) annual bluegrass: one week, compared with control
Protocol: as §6

[12] = system: Lactuca sativa (lettuce) seed; conditions: stepwise dilution series from 25% to 0%
Description: Numerous natural compounds were screened for their ability to inhibit the germination of dicot seeds. A single seed of Lactuca sativa (lettuce) was placed in each well of a 96-well plate followed by a solution of each compound in a stepwise dilution series from 25% to 0%. Germination was monitored daily.

[13] = 10% formic acid in corn gluten meal granules >2 mm, 0.1 g/pot
[14] = 10% formic acid in corn gluten meal granules >2 mm, 0.25 g/pot
[15] = 10% formic acid in corn gluten meal granules >2 mm, 0.5 g/pot
[16] = 10% formic acid in corn gluten meal granules >2 mm, 1 g/pot
[17] = 15% formic acid in corn gluten meal granules >2 mm, 0.1 g/pot
[18] = 15% formic acid in corn gluten meal granules >2 mm, 0.25 g/pot
[19] = 15% formic acid in corn gluten meal granules >2 mm, 0.5 g/pot
[20] = 15% formic acid in corn gluten meal granules >2 mm, 1 g/pot
[21] = 20% formic acid in corn gluten meal granules >2 mm, 0.1 g/pot
[22] = 20% formic acid in corn gluten meal granules >2 mm, 0.25 g/pot
[23] = 20% formic acid in corn gluten meal granules >2 mm, 0.5 g/pot
[24] = 20% formic acid in corn gluten meal granules >2 mm, 1 g/pot
[25] = bigger granules (>2 mm) imbedded in 15% formic acid

With `O=CO` [Formic acid] the “ability to inhibit germination of seeds” value [1] was “inhibit germination of seeds”, the “ability to inhibit germination of seeds” value [2] was “inhibit germination of seeds” and the “% control of wheat seedlings” value ([3]; 24-h) was 1%. The “% control of wheat seedlings” value ([3]; 72-h) was 4%, the “% control of radish plants” value ([4]; 24-h) was 100% and the “% control of radish plants” value ([4]; 72-h) was 100%. For the same molecule, the “killing of foliage of radish plants” value [5] was “completely killed all the foliage”, the wheat foliage killed ([6]; foliar spray 1%) was “none of the foliage killed” and the wheat plants killed ([6]; foliar spray 5%) was 10%. The “survival of planted seedlings” value ([7]; "By week 1, however, and in all subsequent weeks", identical to water group) was 100%, the “residual herbicidal effect lasting” value ([7]; formic acid on charcoal in watered soil) was “less than one week” and the planted seedlings survived ([7]; week 1, flats treated with charcoal immersed in formic acid, water flats 100 percent) was 80%. The “effect on the germination of monocot seeds” value [8] was “profound effect”, the “effect on the germination of dicot seeds” value [9] was “profound effect” and the “germination rate (%) dandelion” value [10, 13] was 60%. The “germination rate (%) dandelion” value [10, 14] was 30%, the “germination rate (%) dandelion” value [10, 15] was 30% and the “germination rate (%) dandelion” value [10, 16] was 0%. The “germination rate (%) dandelion” value [10, 17] was 30%, the “germination rate (%) dandelion” value [10, 18] was 30% and the “germination rate (%) dandelion” value [10, 19] was 30%. For the same molecule, the “germination rate (%) dandelion” value [10, 20] was 0%, the “germination rate (%) dandelion” value [10, 21] was 0% and the “germination rate (%) dandelion” value [10, 22] was 0%. The “germination rate (%) dandelion” value [10, 23] was 0%, the “germination rate (%) dandelion” value [10, 24] was 0% and the “control of a broadleaved weed” value [10, 25] was “complete control”. For the same molecule, the “germination rate (%) annual bluegrass” value [11, 13] was 100%, the “germination rate (%) annual bluegrass” value [11, 14] was 100% and the “germination rate (%) annual bluegrass” value [11, 15] was 30%. The “germination rate (%) annual bluegrass” value [11, 16] was 100%, the “germination rate (%) annual bluegrass” value [11, 17] was 0% and the “germination rate (%) annual bluegrass” value [11, 18] was 0%. For the same molecule, the “germination rate (%) annual bluegrass” value [11, 19] was 0%, the “germination rate (%) annual bluegrass” value [11, 20] was 100% and the “germination rate (%) annual bluegrass” value [11, 21] was 100%. The “germination rate (%) annual bluegrass” value [11, 22] was 100%, the “germination rate (%) annual bluegrass” value [11, 23] was 100% and the “germination rate (%) annual bluegrass” value [11, 24] was 100%. For the same molecule, the “control of the grass seed germination” value [11, 25] was “not effective” and the “threshold value to inhibit germination of seeds” value [12] was 0.0013%.
